Test results published in PMC9501014, “Amaryllidaceae-Type Alkaloids from Pancratium maritimum: Apoptosis-Inducing Effect and Cell Cycle Arrest on Triple-Negative Breast Cancer Cells” (Molecules, 2022).

Test system: Bax, Bcl-xL, p21, p53 protein expression in MDA-MB-231 cells
Assay: Western blot analysis of protein expression levels
Type: cell-based, human
Conditions: 16 µM, 48 h
Procedure: Once compound 7 induced cancer cell death by apoptosis, we next explored the molecular pathways involved in its apoptotic effect. For that, some apoptotic-related proteins were checked in MDA-MB-231 cells treated with 16 µM of compound 7 for 48 h (Figure 2E,F).
MDA-MB-231 cells were seeded in 6-well plates at a density of 1.5 × 10^5 cells/well for 24 h, followed by treatment with 16 µM of compound 7. Protein extracts were quantified using the Bradford reagent (Sigma-Aldrich). Proteins were run in SDS-PAGE and transferred to a Whatman nitrocellulose membrane from Protan (VWR, Carnaxide, Portugal). After blocking, proteins were identified using specific primary antibodies: rabbit polyclonal anti-p21 (Santa Cruz Biotechnology, Dallas, […], USA), rabbit polyclonal anti-Bax, and rabbit monoclonal anti-Bcl-xL (Invitrogen, Waltham, MA, USA), followed by the respective anti-mouse/anti-rabbit HRP-conjugated secondary antibodies (Santa Cruz Biotechnology). GAPDH was used as a loading control. The signal was detected with the ECL Amersham kit from GE Healthcare (VWR, Carnaxide, Portugal). Two detection methods were used: the Kodak GBX developer and fixer (Sigma-Aldrich) or the ChemiDoc™ XRS Imaging System from Bio-Rad Laboratories (Amadora, Portugal).

**Q.** What does the source list for COc1cc2c(cc1O)C(=O)OC1[C@@H](O)C=C3CCN(C)C3[C@]21O (stereo partly drawn) [Compound 7, 2α-10bα-dihydroxy-9-O-demethylhomolycorine]?
**A.** Bax protein levels (MDA-MB-231): increased levels; Bcl-xL protein levels (MDA-MB-231): reduced levels; p21 protein levels (MDA-MB-231): increased the p21 protein levels; p53 protein expression levels (MDA-MB-231, data not shown): did not interfere
